Results reported in patent US6316436A, “Inhibitors of prenyl-protein transferase” (Merck & Co., Inc., priority 1999, dated 2001).

Molecular target: T1, human FPTase (Homo sapiens, UniProt P49354+P49356)
T1 construct: made in house
Assay: In vitro inhibition of Ras farnesyl transferase (FPTase inhibition assay)
Format: biochemical
Settings: 30° C.; 650 nM Ras-CVLS, 100 nM farnesyl diphosphate; recombinant FPTase; read-out: IC50 for inhibitory activity against human FPTase
Method: In Vitro Inhibition of Ras Farnesyl Transferase
Isoprenyl-protein transferase activity assays are carried out at 30° C. unless noted otherwise. A typical reaction contains (in a final volume of 50 μL): [^3 H]farnesyl diphosphate, Ras protein, 50 mM HEPES, pH 7.5, 5 mM MgCl2, 5 mM dithiothreitol, 10 μM ZnCl2, 0.1% polyethyleneglycol (PEG) (15,000-20,000 mw) and isoprenyl-protein transferase. The FPTase employed in the assay is prepared by recombinant expression as described in Omer, C. A., Kral, A. M., Diehl, R. E., Prendergast, G. C., Powers, S., Allen, C. M., Gibbs, J. B. and Kohl, N. E. (1993) Biochemistry 32:5167-5176. After thermally pre-equilibrating the assay mixture in the absence of enzyme, reactions are initiated by the addition of isoprenyl-protein transferase and stopped at timed intervals (typically 15 min) by the addition of 1 M HCl in ethanol (1 mL). The quenched reactions are allowed to stand for 15 m (to complete the precipitation process). After adding 2 mL of 100% ethanol, the reactions are vacuum-filtered through Whatman GF/C filters. Filters are washed four times with 2 mL aliquots of 100% ethanol, mixed with scintillation fluid (10 mL) and then counted in a Beckman LS3801 scintillation counter. […]

## CCC12CCCCN(C1)C(=O)CCc1cncn1Cc1ccc(C#N)c(c1)Oc1cccc2c1 (racemic) [Example 1, (±) 5H-17-Ethyl-17,22-methano-18,19,20,21,23,24-hexahydro-23-oxo-6,10: 12,16-dimetheno-25H-imidazo[3,4-h]-[1,11,16]oxadiazacyclodocosane-9-carbonitrile]
  IC50: ≤ 10 µM
